This is an account of results in US20070161542A1, “Ptb1b photoprobes” (priority 2003, published 2007).

For assay [1], the target named is T1, full-length PTP1B in SF9 lysate (Homo sapiens, UniProt P18031).
T1 construct: Infected SF9 cell lysate expressing full-length PTP1B (as a flag fusion); made in house; host or cells: SF9 insect cells (infected), used as crude lysate
T1 sequence (P18031 1-435): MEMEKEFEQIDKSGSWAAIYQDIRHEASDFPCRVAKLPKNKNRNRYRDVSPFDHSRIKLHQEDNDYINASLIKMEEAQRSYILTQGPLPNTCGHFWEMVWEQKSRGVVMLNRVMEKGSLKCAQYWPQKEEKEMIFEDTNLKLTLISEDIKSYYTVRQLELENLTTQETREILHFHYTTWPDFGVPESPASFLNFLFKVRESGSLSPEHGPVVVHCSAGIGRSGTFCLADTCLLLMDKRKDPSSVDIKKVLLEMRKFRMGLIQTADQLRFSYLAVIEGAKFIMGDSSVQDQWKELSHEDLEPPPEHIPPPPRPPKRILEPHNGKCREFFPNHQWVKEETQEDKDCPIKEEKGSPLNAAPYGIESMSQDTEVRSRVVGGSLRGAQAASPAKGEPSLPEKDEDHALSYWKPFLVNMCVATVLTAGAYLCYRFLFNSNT
The experiment in a line: Photolabeling of SF9 cell lysate overexpressing PTP1B. It is filed as binding. Particulars: PTP1B 1% wt/wt protein. From the text: Protein tyrosine phosphatases used in this study were expressed and purified using published procedures, as follows: (a) Flag-PTP1B (residues 1-320 as a flag fusion), Huyer et al. (29). (b) Flag-TCPTP (residues 1-281 as a flag fusion), Asante-Appiah et al. (30). (c) Flag-CD45 (residues 556-1268 as a flag fusion), Wang et al. (31). (d) Mutant C215S-PTP1B (residues 1-320 as a gst fusion), Skorey et al. (28). (e) Infected SF9 cell lysate expressing full-length PTP1B (as a flag fusion), Cromlish et al. (25). For studies using H2O2-inactivated Flag-PTP1B, 100 μl of 2 μg/ml PTP1B was incubated with 100 μl of 1 mM or 20 mM H2O2 for 15 min to obtain 50% or 100% inactivated enzyme respectively as determined by the enzyme kinetic assay.
All photolabeling experiments with purified enzymes or SF9 cell lysate overexpressing PTP1B were conducted in 96-well polystyrene plates in 50 μl BisTris buffer (50 mM BisTris pH 6.3, 2 mM EDTA, 1 mM DMH) containing enzyme (in BisTris buffer with 20% glycerol, 0.01% Triton X-100) or lysate and Example 9 (in water) or Example 1 (in water) at various concentrations and shaken for 1 min at room temperature. […] Autoradiography of the dried, coommassie-stained gel was done using Phosphorimaging (Molecular Devices) or by x-ray film (BioMax MS with intensifier screen, Kodak) and quantified by densitometry. […]

Assay [2] has as its target T2, purified Flag-PTP1B (Homo sapiens, UniProt P18031).
T2 construct: Flag-PTP1B (residues 1-320 as a flag fusion); made in house
T2 sequence (P18031 1-320): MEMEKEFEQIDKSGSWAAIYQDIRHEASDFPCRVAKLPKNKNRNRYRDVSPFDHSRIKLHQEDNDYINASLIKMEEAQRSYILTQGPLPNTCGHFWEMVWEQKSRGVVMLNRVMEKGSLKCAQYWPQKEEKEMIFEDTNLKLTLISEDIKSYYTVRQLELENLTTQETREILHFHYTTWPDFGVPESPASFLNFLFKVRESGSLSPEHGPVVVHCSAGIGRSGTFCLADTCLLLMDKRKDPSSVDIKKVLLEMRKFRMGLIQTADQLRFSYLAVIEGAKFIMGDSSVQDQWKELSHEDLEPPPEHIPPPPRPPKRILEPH
The assay is described as follows: Photolabeling of purified enzyme using radioactive photoprobes. It is filed as binding. The protocol:
All photolabeling experiments with purified enzymes or SF9 cell lysate overexpressing PTP1B were conducted in 96-well polystyrene plates in 50 μl BisTris buffer (50 mM BisTris pH 6.3, 2 mM EDTA, 1 mM DMH) containing enzyme (in BisTris buffer with 20% glycerol, 0.01% Triton X-100) or lysate and Example 9 (in water) or Example 1 (in water) at various concentrations and shaken for 1 min at room temperature. For competition studies, BzN-EJJ-AMIDE at various concentrations was added prior to the addition of the probes. The samples were then placed on ice for 5 min and irradiated with the 40 watt lamp at the standard 10 cm distance for 15 minutes. […] Autoradiography of the dried, coommassie-stained gel was done using Phosphorimaging (Molecular Devices) or by x-ray film (BioMax MS with intensifier screen, Kodak) and quantified by densitometry.
To study the labeling of PTP1B under physiological concentrations that exist in cells and tissues, ^125I -radiolabeled versions of Examples 9 and 1 were synthesized. […] The labeled enzyme was detected by phosphorimage (Molecular Devices) or x-ray film (BioMax MS with intensifier screen) from a SDS-PAGE gel after electrophoresis. From a titration of the purified PTP1B and probe, a detection limit for the two probes of Examples 9 and 1 were determined to be about 5 and 0.2 nM respectively, as detected by phosphorimaging. […]

Structures are written as SMILES.

In the case of `NC(=O)[C@H](Cc1ccc(C(F)(F)P(=O)(O)O)cc1)NC(=O)[C@H](Cc1ccc(C(F)(F)P(=O)(O)O)cc1)NC(=O)c1cc(I)cc(C2(C(F)(F)F)N=N2)c1` [Example 9, 4-(Difluoro(phosphono)methyl)-N-(3-iodo-5-(3-(trifluoromethyl)-3H-diaziren-3-yl)benzoyl)-L-phenylalanyl-4-(difluoro(phosphono)methyl)-L-phenylalaninamide], in assay [1], the “labeling of SF9 overexpressed PTP1B” value was “labeled SF9 overexpressed PTP1B”. The efficiency of labeling in assay [2] (7 nM probe, purified Flag-PTP1B, vs probe alone after gel electrophoresis) is 9%. Also, in assay [2] (125I-radiolabeled probe, purified PTP1B, phosphorimaging), the “detection limit of labeled PTP1B” value is reported as “about 5 nM”.
